# Measurements taken from ChEMBL document CHEMBL1126349, “Synthesis and biological properties of 1069C: a new synthetic antitumour agent with very low cross-resistance potential” (Bioorg Med Chem Lett, 1992).
# Several values for one entry are separate records, joined by “and”; a condition that tells them apart may be missing. Equal entries are not always repeated. Activity calls are given as the source filed them. The calls are words filed in the database; no cut-off is given here.
# How the values were obtained:
# P388 [1] = assay: Compound was tested for % increase in life span of P388 tumor; type: functional, Mus musculus
# P388 [2] = assay: Compound was tested for % increase in life span of adriamycin resistant P388 tumor; type: functional, Mus musculus
# P388 [3] = assay: Compound was tested for % increase in life span of vincristine resistant P388 tumor; type: functional, Mus musculus
# P388 [4] = assay: The compound was evaluated in vitro for the P388 cell spindle disruption.; 0.006-0.009; type: functional, cell-based; settings: Mus musculus
# Tubulin alpha chain [5] = molecular target: T1, Tubulin alpha chain (Sus scrofa, UniProt P02550); assay: Compound was tested for competitive inhibition with radioligand [3H]colchicine at colchicine site of mammalian tubulin
# [6] = molecular target: Tubulin alpha chain (Sus scrofa) (UniProt P02550); assay: Compound was tested for competitive inhibition with radioligand [3H]colchicine or [3H]vinblastine at alkaloid site on mammalian tubulin; No effect
# P388 [7] = assay: The compound was evaluated in vitro for the inhibition of murine leukemia P388D1 cell proliferation.; type: functional, cell-based; settings: Mus musculus
# P388 [8] = assay: The compound was evaluated in vitro for the inhibition of P388D1 cell colony formation.; type: functional, cell-based; settings: Mus musculus
# Tubulin alpha chain [9] = molecular target: T1, Tubulin alpha chain; assay: In vitro mammalian brain tubulin polymerization using standard assay.; type: functional
# P388 [10] = assay: The compound was evaluated in vitro for the P388 cell spindle disruption.; 0.02-0.04; type: functional, cell-based; settings: Mus musculus
# Tubulin alpha chain [11] = molecular target: T1, Tubulin alpha chain; assay: The compound was evaluated in vitro for the mammalian brain tubulin polymerization using standard assay.; type: functional
# T1 sequence (P02550 whole entry, looked up): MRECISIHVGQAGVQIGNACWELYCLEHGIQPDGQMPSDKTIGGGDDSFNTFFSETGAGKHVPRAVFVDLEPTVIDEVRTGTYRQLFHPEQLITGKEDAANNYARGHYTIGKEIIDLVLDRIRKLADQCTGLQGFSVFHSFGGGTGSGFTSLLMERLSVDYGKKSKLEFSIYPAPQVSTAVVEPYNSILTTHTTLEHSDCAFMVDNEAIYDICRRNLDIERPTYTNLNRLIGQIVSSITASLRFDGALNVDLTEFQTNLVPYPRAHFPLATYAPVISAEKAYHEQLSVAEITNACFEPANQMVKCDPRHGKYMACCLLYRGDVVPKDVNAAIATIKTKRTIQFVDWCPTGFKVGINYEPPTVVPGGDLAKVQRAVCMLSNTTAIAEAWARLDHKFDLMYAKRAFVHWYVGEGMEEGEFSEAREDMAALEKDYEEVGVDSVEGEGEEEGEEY
# Chain of Tubulin alpha chain (Sus scrofa) (P02550 whole entry, looked up): as above
SMILES,ILS (P388 [1]),ILS (P388 [2]),ILS (P388 [3]),EC50 (P388 [4]),Ki (Tubulin alpha chain [5]),Activity [6],IC50 (P388 [7]),IC50 (P388 [8]),IC50 (Tubulin alpha chain [9]),EC50 (P388 [10]),IC50 (Tubulin alpha chain [11])
COc1cc([C@@H]2c3cc4c(cc3[C@@H](O[C@@H]3O[C@@H]5CO[C@@H](C)O[C@H]5[C@H](O)[C@H]3O)[C@H]3COC(=O)[C@H]23)OCO4)cc(OC)c1O [ETOPOSIDE],~80%,~20%,–,–,–,–,–,–,–,–,–
COC(=O)Nc1cn2nc(OCc3cc(OC)c(OC)c(OC)c3)ccc2n1,~147% and ~120%,~110%,~170%,6 nM,750 nM,inactive,8.9 nM,13 nM,310 nM,–,–
CC[C@]1(O)C[C@@H]2CN(CCc3c([nH]c4ccccc34)[C@@](C(=O)OC)(c3cc4c(cc3OC)N(C)[C@H]3[C@@](O)(C(=O)OC)[C@H](OC(C)=O)[C@]5(CC)C=CCN6CC[C@]43[C@@H]65)C2)C1 [VINBLASTINE],~100%,–,~50%,–,–,–,1.7 nM,8.2 nM,–,–,–
COc1cccc2c1C(=O)c1c(O)c3c(c(O)c1C2=O)C[C@@](O)(C(=O)CO)C[C@@H]3O[C@H]1C[C@H](N)[C@H](O)[C@H](C)O1 [DOXORUBICIN],~120%,~25%,–,–,–,–,–,–,–,–,–
CC[C@]1(O)C[C@H]2CN(CCc3c([nH]c4ccccc34)[C@@](C(=O)OC)(c3cc4c(cc3OC)N(C=O)[C@H]3[C@@](O)(C(=O)OC)[C@H](OC(C)=O)[C@]5(CC)C=CCN6CC[C@]43[C@@H]65)C2)C1 [VINCRISTINE],~130%,~5%,~10%,–,–,–,4.7 nM,190 nM,–,20 nM,220 nM
COc1cc2c(c(OC)c1OC)-c1ccc(OC)c(=O)cc1[C@@H](NC(C)=O)CC2 [COLCHICINE],~85%,–,~75%,–,–,–,0.62 nM,71 nM,–,–,–
